These results are taken from patent US20060159780A1, “Prevention and amelioration of acetaminophen toxicity with tea melanin” (National Chiao Tung University, priority 2005, published 2006).

One data set concerns ICR mice. Put plainly: Toxicity of NAPAP in mice: mortality and behaviour. It counts as in vivo. On the procedure: (§1) Adult male ICR mice (30±5 g) were employed for all experiments. Animals were housed under controlled condition (25±2° C.) and 12 h light/dark cycle, and allowed free access to food and water, but fasted overnight before treatment. Animals were divided into several groups including control group (not receiving any treatment), negative control (receiving TSM alone), positive control (receiving only NAPAP), and experimental groups receiving NAPAP and TSM together. Each experimental group consisted of 6 mice. NAPAP was dissolved in normal saline (pH 7.4) and administered inraperitonially (i.p.) with a dose of 400 mg/kg. TSM was dissolved in distillate water at pH 7.2 and administered i.p. with doses of 10, 20, 30, or 40 mg/kg 2 h before intoxication. All animals were sacrificed by ether anesthesia 24 h after the NAPAP exposure. Blood samples were withdrawn by cardiac puncture for determination of alanine aminotransferase (ALT) activity using commercially available kit (Sigma 505-P). Liver was isolated and perfused with normal saline to wash out the blood. It was then used for determination of GSH, oxidized glutathione (GSSG), superoxide dismutase (SOD), thiobarbituric acid reactive substances (TBARS), and reduced forms of coenzymes Q9 (CoQ9) and Q10 (CoQ10).
The behavior of the animals in experimental group resembled the control group by movement activity. […]

For data set [1], the system named is alanine aminotransferase (ALT) activity. Put plainly: Alanine aminotransferase (ALT) activity in blood of NAPAP-intoxicated mice. It counts as in vivo. Conditions: NAPAP 400 mg/kg i.p. alone; 24 h of exposure; mean ± SEM. As for the experimental part: as §1
Another data set deals with hepatic GSH. Put plainly: Hepatic GSH assay. The format is in vivo, mice. On the procedure: as §1, with “Blood samples were withdrawn by cardiac puncture for determination of alanine aminotransferase (ALT) activity using commercially available kit (Sigma 505-P). Liver was isolated and perfused with normal saline to wash out the blood. It was then used for determination of GSH, oxidized glutathione (GSSG), superoxide dismutase (SOD), thiobarbituric acid reactive substances (TBARS), and reduced forms of coenzymes Q9 (CoQ9) and Q10 (CoQ10).” left out
(§2) Frozen liver tissue was homogenized in 5% trichloroacetic acid (TCA) supplemented with 5 mM EDTA under a stream of nitrogen gas, then centrifuged at 20,000 g for 10 min at 4° C. […] The total hepatic glutathione level representing the sum of GSH and GSSG was determined using dithiobis-2-nitrobenzoic acid (Griffith, O. W. Anal. Biochem. 1980, 106, 207-212). The GSSG level was determined after elimination of GSH by reaction with 2-vinylpyridine, and the actual GSH level was calculated by subtracting the GSSG level from the total glutathione.

Data set [2] has as its system oxidized glutathione (GSSG). Put plainly: Hepatic GSSG assay. The format is in vivo, mice. To be noted: NAPAP 400 mg/kg i.p. alone; liver, 24 h; mean ± SEM. On the procedure:
as §1, with “Blood samples were withdrawn by cardiac puncture for determination of alanine aminotransferase (ALT) activity using commercially available kit (Sigma 505-P). Liver was isolated and perfused with normal saline to wash out the blood. It was then used for determination of GSH, oxidized glutathione (GSSG), superoxide dismutase (SOD), thiobarbituric acid reactive substances (TBARS), and reduced forms of coenzymes Q9 (CoQ9) and Q10 (CoQ10).” left out
as §2

In data set [3] the test system is superoxide dismutase (SOD). Put plainly: Superoxide dismutase assay in mouse liver. It counts as in vivo, mice. Conditions: NAPAP alone, FIG. 2. On the procedure: as §1, with “Blood samples were withdrawn by cardiac puncture for determination of alanine aminotransferase (ALT) activity using commercially available kit (Sigma 505-P). Liver was isolated and perfused with normal saline to wash out the blood. It was then used for determination of GSH, oxidized glutathione (GSSG), superoxide dismutase (SOD), thiobarbituric acid reactive substances (TBARS), and reduced forms of coenzymes Q9 (CoQ9) and Q10 (CoQ10).” left out
Determination of superoxide dismutase activity in mouse liver was based on inhibition of nitrite formation in reaction of oxidation of hydroxylammonium with superoxide anion radical (Elstner, E. F. and Heupel, A. Anal. Biochem. 1976, 70, 616-620). […] Optical absorbance at 530 nm was measured with Ultrospec III spectrophotometer (Pharmacia, LKB). The results were expressed as units of SOD activity calculated per milligram of protein.

Another data set has as its system CoQ9. Put plainly: Coenzymes Q assay in liver: CoQ9. It counts as in vivo, mice. Conditions: NAPAP 400 mg/kg itself, FIG. 3. On the procedure: as §1, with “It was then used for determination of GSH, oxidized glutathione (GSSG), superoxide dismutase (SOD), thiobarbituric acid reactive substances (TBARS), and reduced forms of coenzymes Q9 (CoQ9) and Q10 (CoQ10).” left out
(§3) Determination of reduced forms of CoQ9 and CoQ10 was carried out by the method of Ikenoya et al. (Ikenoya, S. et al., Chem Pharm Bull. 1981, 29, 158-164). […] The extract was analyzed using HPLC with Jasco 840 EC detector and Chemosorb ODS-H column (4.6×250 mm). […]

In another data set the test system is CoQ10. Put plainly: Coenzymes Q assay in liver: CoQ10. The format is in vivo, mice. Conditions: NAPAP 400 mg/kg itself, FIG. 3. As for the experimental part: as §1, with “It was then used for determination of GSH, oxidized glutathione (GSSG), superoxide dismutase (SOD), thiobarbituric acid reactive substances (TBARS), and reduced forms of coenzymes Q9 (CoQ9) and Q10 (CoQ10).” left out
as §3

Data set [4] has as its system antibody-forming cells (AFC) of splenocytes. Put plainly: Antibody-producing response (AFC plaque assay) after SRBC sensitization. It counts as in vivo. To be noted: NAPAP 400 mg/kg i.p.; SRBC-sensitized ICR mice. As for the experimental part:
Experiments were performed on 10 groups of intact ICR mice consisting of 4 animals each. The first 5 groups were injected i.p. with the following single doses of TSM: 0, 10, 20, 30, and 40 mg/kg. The second 5 groups were injected similarly to the first groups with TSM, but after 2 h animals were again injected (i.p.) with 400 mg/kg NAPAP. One day after administration of TSM or TSM+NAPAP, mice were injected into the tail vein with 1×10^8 sheep red blood cells (SRBC) prepared in 0.2 mL of saline. An additional 4 animals received only SRBC (antigen control). Four days after their sensitization with SRBC, animals were sacrificed, and their spleens were removed. Single splenocytes were prepared from each spleen in 5 mL of RPMI-1640 media. Enumeration of the antibody-forming cells (AFC) was performed using a plaque assay (Jerne, N. K. and Nordin, A. A. Science 1963, 140, 405). AFC values were calculated for 10^6 splenocytes.

The structures appear in SMILES notation.

In turn, `CC(=O)Nc1ccc(O)cc1` [NAPAP, N-Acetyl-p-aminophenol] had an Animal lethality with ICR mice (NAPAP 400 mg/kg administered alone) of 66%. Besides, the “Mortality (dead/total)” value with ICR mice (NAPAP 400 mg/kg i.p. alone, 24 h of exposure) is reported as 2/6. The same compound yielded an ALT in data set [1] of 2043 U/L. For the same compound, the GSH in the data set on hepatic GSH (NAPAP 400 mg/kg i.p. alone, liver, 24 h, mean ± SEM) is given as 13 ± 1 nmol/mg prot. The “depletion of GSH level as compared to control” value with hepatic GSH (NAPAP alone, 24 h after administration) came out at 2.6 fold. In data set [2], this compound had a GSSG of 3.2 ± 0.4 nmol/mg prot. In addition, the “decrease of SOD activity as compared to control” value in data set [3] is given as roughly 4 fold. Further, in the data set with CoQ9, the “content of CoQ9 diminished, compared to negative control” value worked out at 60%. Moreover, the “coenzyme Q10 content diminished, compared to negative control” value with CoQ10 was 55%. The “suppression of AFC against the antigen control level” value in data set [4] came out at 26%.
